The assay deals with T1, NozMT.
T1 construct: N-terminal hexahistidine-tagged, codon-optimized synthetic gene in pQE31, E. coli M15(pREP4), Ni-NTA purified
As to the kind of experiment: initial rates, HPLC-UV […] nm, Michaelis-Menten fit. Format: biochemical, Nocardiopsis sp. CMB-M0232. The conditions noted are these: 2 mM SAM, 10 μM enzyme, 40 mM Tris pH 7.5, 200 mM NaCl, 1% DMSO, 37 °C.

Broadly, the Km is the concentration of substrate that gives half-maximal velocity.

Like-named read-outs stand apart in the source and are kept apart here.

Take `CC(C)=CC[C@]12C[C@@H]3C(=O)N[C@H](Cc4c[nH]c5ccccc45)C(=O)N3[C@H]1Nc1ccccc12` [compound 6, cyclo-D-Trp-C3'-prenyl-D-Trp]: under “N1' methylation, read-out: apparent average Km”, the Km came out at 146 µM.

On to `CC(C)=CC[C@]12C[C@@H]3C(=O)N[C@H](Cc4c[nH]c5ccccc45)C(=O)N3[C@H]1N(C)c1ccccc12` [compound 7, cyclo-D-Trp-N1'-methyl-C3'-prenyl-D-Trp], for which the Km (C3 methylation, read-out: apparent Km) was 606 µM.

The record behind these values is publication PMC10156859, “Unveiling an indole alkaloid diketopiperazine biosynthetic pathway that features a unique stereoisomerase and multifunctional methyltransferase” (Nature Communications, 2023).
